Values belong to the compound of their own block, whether it stands above or below them. Residues, ends and D or L forms follow the SMILES beside them.
Legend:
[1] = target: LL-37, cathelicidin C-terminal antimicrobial peptide (UniProt P49913); test: cell-based or functional assay
[2] = test system: IL-6 release induced by LL-37 in primary human keratinocytes; test: Inhibition of the release of IL-6 induced by LL-37 in primary human keratinocytes (ELISA); assay type: cell-based; conditions: carrier = 100%
Description: (§1) Solutions of the compounds of the invention were prepared in Eppendorf tubes at the desired concentrations in complete Epilife® medium with and without LL-37 at 50 μg/mL in a final volume of 250 μL. The mixtures were incubated in rotation for 1 hour at room temperature. After the preincubation hour the samples were collected and they were given a quick pulse in the centrifuge to push all the solution to the bottom of the tube. Without removing the incubation medium, it was added to the 50 μL/well cells of the previous mixtures in quadruplicate and the plate was incubated at 37° C. in a CO2 incubator for 1 hour. After the hour of incubation, 50 μL/well of complete Epilife® medium were added. They were incubated for another 5 hours to allow the release of pro-inflammatory cytokines induced by LL-37 for their subsequent quantification by ELISA. After the 5 hours, the […] of supernatants were collected with the multi-channel pipette and passed to a new 96-well plate and the quantity of IL-6 and IL-8 released was determined by the Human IL-6 ELISA Ready-SET-GO!® and Human IL-8 ELISA Ready-SET-GO!® commercial kits (eBioscience, Inc.) following the supplier's instructions. The absorbency of each well was determined by reading a Multiskan Ascent Reader spectrophotometer at 450 nm correcting for each determination with its corresponding reading at 570 nm. The standardized relative levels of IL-6 and IL-8 were calculated with regard to the absorbency corresponding to the treatment of the cells with carrier. Next, the total number of cells per well was quantified with Cristal Violeta, in order to be able to calculate the percentage of interleukins released per cell.
(§2) In table 4 the results obtained from the release of IL-8 are detailed.

[3] = test system: IL-8 release induced by LL-37 in primary human keratinocytes; test: Inhibition of the release of IL-8 induced by LL-37 in primary human keratinocytes (ELISA); assay type: cell-based; conditions: carrier = 100%
Description: as §1, §2

[4] = target: tyrosinase; test: cell-based or functional assay
[5] = target: collagenase; test: cell-based or functional assay
[6] = test system: human epidermal melanocytes; test: Inhibition of melanogenesis in human epidermal melanocytes; assay type: cell-based; conditions: repeated treatment to day 10, control (culture medium) = 100
Description: Primary human melanocytes were cultivated in medium 254 supplemented by HMGS and antibiotics. The cells were grown for 72 hours after which the medium was changed to 254 supplemented by HMGS-2 and antibiotics. The cells were grown until confluence for 2 weeks, changing the medium every 2-3 days. After two weeks, the cells were trypsinized and seeded in 6-well plates. After being incubated for a whole night at 37° C. and 5% of CO2, the first treatment with the peptide was carried out at different concentrations. As a negative control, only medium was added. The treatment was repeated on days 3, 6, 8 and 10, after which the cells were trypsinized and the number counted with a cell counter. Melanin was quantified by measuring the absorbency at 450 nm with a microplate reader and the value was standardized with regard to the total number of cells per well, expressed as picograms of melanin per cell from a calibration line prepared with synthetic melanin dissolved in 1 N NaOH with 10% DMSO.

[7] = test system: collagenase; test: Anti-collagenase activity, fluorescein-derivatized gelatin; assay type: biochemical; conditions: collagenase 0.4 U/mL, 2 hours
Description: Different concentrations of the peptide Ac-L-Ala-L-Thr-L-Asn-L-Thr-OH (Ac-(SEQ ID NO: 16)-OH) were incubated in a 96-well plate together with fluorescein-derivatized gelatin, a fluorescent marker. Next, collagenase (0.4 U/mL) was added and incubated at room temperature protected from sunlight for 2 hours, after which the fluorescence (λexc=495 nm and λem=515 nm) was measured at different points, thus the breakage in the derivatized gelatin could be quantified. As a positive control 1,10-phenanthroline was used, a metal chelator which acts as an inhibitor of metalloproteases.

[8] = test system: tyrosinase; test: Anti-tyrosinase activity, L-DOPA substrate; assay type: biochemical
Description: Different concentrations of the peptide […]-OH (Ac-(SEQ ID NO: 16)-OH) were incubated in a 96-well plate together with L-DOPA in a HEPES buffer for 30 minutes at 37° C. After incubation, the tyrosinase enzyme was added and incubated for 10 minutes. The reaction was stopped freezing the plate at -20° C. for 5 minutes, after which the absorbency was measured at λexc=490 nm in a microplate reader. As a positive control kojic acid was added, a substance with known anti-tyrosinase activity.

[9] = peptide 0.025 mg/mL + LL-37 0.05 mg/ml
[10] = peptide 0.1 mg/mL + LL-37 0.05 mg/ml
[11] = peptide 0.5 mg/mL + LL-37 0.05 mg/ml

% IL-6 released by primary human keratinocytes (ELISA), peptide 0.025 mg/mL + LL-37 0.05 mg/ml; carrier 100%, LL-37 alone 122.28% [1]: 108%
% IL-6 released by primary human keratinocytes (ELISA), peptide 0.1 mg/mL + LL-37 0.05 mg/ml; carrier 100%, LL-37 alone 122.28% [1]: 96%
% IL-6 released by primary human keratinocytes (ELISA), peptide 0.5 mg/mL + LL-37 0.05 mg/ml; carrier 100%, LL-37 alone 122.28% [1]: 93.2%
% IL-8 released by primary human keratinocytes (ELISA), peptide 0.025 mg/mL + LL-37 0.05 mg/ml; carrier 100%, LL-37 alone 142.65% [1]: 133%
% IL-8 released by primary human keratinocytes (ELISA), peptide 0.1 mg/mL + LL-37 0.05 mg/ml; carrier 100%, LL-37 alone 142.65% [1]: 125%
% IL-8 released by primary human keratinocytes (ELISA), peptide 0.5 mg/mL + LL-37 0.05 mg/ml; carrier 100%, LL-37 alone 142.65% [1]: 109%
Compound: Ac-L-Ser-L-Val-L-Arg-L-Val-L-Ala-L-Val-NH2 (Ac-(SEQ ID NO: 2)-NH2) (peptide)

Compound: Ac-L-Ser-L-Val-L-Arg-L-Val-L-Ala-L-Val-NH2 (Ac-SVRVAV-NH2)
% IL-6 [2, 9]: 108.35%
% IL-6 [2, 10]: 95.96%
% IL-6 [2, 11]: 93.15%
% IL-8 [3, 9]: 132.92%
% IL-8 [3, 10]: 125.05%
% IL-8 [3, 11]: 109.24%

Compound: Ac-L-Ala-L-Thr-L-Asn-L-Thr-OH (Ac-(SEQ ID NO: 16)-OH) (peptide)
% tyrosinase inhibition (L-DOPA oxidation, absorbance 490 nm), peptide 2 mg/mL [4]: 38.2%
% tyrosinase inhibition (L-DOPA oxidation, absorbance 490 nm), peptide 3 mg/mL [4]: 76%
% tyrosinase inhibition (L-DOPA oxidation, absorbance 490 nm), peptide 4 mg/mL [4]: 86.5%
% IL-6 released by primary human keratinocytes (ELISA), peptide 0.025 mg/mL; carrier 100%, LL-37 0.05 mg/ml alone 122.28% [1]: 107%
% IL-6 released by primary human keratinocytes (ELISA), peptide 0.1 mg/mL + LL-37 0.05 mg/ml; carrier 100%, LL-37 alone 122.28% [1]: 94.7%
% IL-6 released by primary human keratinocytes (ELISA), peptide 0.5 mg/mL + LL-37 0.05 mg/ml; carrier 100%, LL-37 alone 122.28% [1]: 92.9%
% IL-8 released by primary human keratinocytes (ELISA), peptide 0.025 mg/mL + LL-37 0.05 mg/ml; carrier 100%, LL-37 alone 142.65% [1]: 133%
% IL-8 released by primary human keratinocytes (ELISA), peptide 0.1 mg/mL + LL-37 0.05 mg/ml; carrier 100%, LL-37 alone 142.65% [1]: 125%
% IL-8 released by primary human keratinocytes (ELISA), peptide 0.5 mg/mL + LL-37 0.05 mg/ml; carrier 100%, LL-37 alone 142.65% [1]: 109%
% collagenase inhibition (cleavage of fluorescein-derivatized gelatin, collagenase 0.4 U/mL), peptide 2 mg/mL [5]: 29.2%
% collagenase inhibition (cleavage of fluorescein-derivatized gelatin, collagenase 0.4 U/mL), peptide 10 mg/mL [5]: 100%

% collagenase inhibition ([7]; 2 mg/mL): 29.21%
% collagenase inhibition ([7]; 10 mg/mL): 100%
% tyrosinase inhibition ([8]; 2 mg/mL): 38.23%
% tyrosinase inhibition ([8]; 3 mg/mL): 76.01%
% tyrosinase inhibition ([8]; 4 mg/mL): 86.45%
Compound: CC(=O)N[C@@H](C)C(=O)N[C@H](C(=O)N[C@@H](CC(N)=O)C(=O)N[C@H](C(=O)O)[C@@H](C)O)[C@@H](C)O [Ac-L-Ala-L-Thr-L-Asn-L-Thr-OH] (Ac-ATNT-OH)
% melanin (pg/cel) ([6]; 0.25 mg/mL): 45.7 ± 3.2%
% melanin (pg/cel) ([6]; 0.625 mg/mL): 55.8 ± 2.8%
% IL-6 [2, 9]: 107.25%
% IL-6 [2, 10]: 94.65%
% IL-6 [2, 11]: 92.90%
% IL-8 [3, 9]: 132.70%
% IL-8 [3, 10]: 124.76%
% IL-8 [3, 11]: 109.39%

% tyrosinase inhibition ([8]; 140 μg/mL): 85.79%
Compound: O=c1cc(CO)occ1O [kojic acid, reference compound]

% collagenase inhibition ([7]; 40 μg/mL): 95.19%
Compound: c1cnc2c(c1)ccc1cccnc12 [1,10-phenanthroline, reference compound]

Compound: LL-37: cathelicidin C-terminal antimicrobial peptide, used to induce release of IL-6 and IL-8 (LLGDFFRKSKEKIGKEFKRIVQRIKDFLRNLVPRTES; Antibacterial peptide LL-37; UniProt P49913 134-170, looked up) [reference compound]
% IL-6 ([2]; LL-37 0.05 mg/ml alone (positive control)): 122.28%
% IL-8 ([3]; LL37 0.05 mg/ml alone (positive control)): 142.65%
